Experimental findings from US10807958B2, “1,4-bis(3-aminopropyl)piperazine derivative and its use” (INSERM (Institut National de la Sante et de la Recherche …, priority 2015, dated 2020) are described below.

Structures are written as SMILES.

Test [1] concerns Tau proteins of Thy-Tau22 animals (hippocampus). Description: 1D SDS-PAGE and Western-blot of Tau expression, catabolites and phosphorylation in hippocampus. The class given is in vivo, mouse. The conditions noted are these: treated vs untreated, FIG. 6. From the text:
Wild-type C57BL/6J animals of 3 months were purchased at Charles Rivers Laboratories (France) and were allow to acclimate in the animal facility for at least one week before any treatment. Thy-Tau22 transgenic colonies (C57BL/6J genetic background) were obtained by crossing heterozygous Thy-Tau22 males with C57BL/6 WT females. […] In this model, a progressive development of NFT is observed in the hippocampus and amygdala, which parallels behavioral impairments (Schindowski et al., 2006). Furthermorever, in the hippocampus, hyper- and abnormally phosphorylated Tau species accumulate within the somato-dendritic area (Schindowski et al., 2006).
For animal treatment, animals were randomly distributed and the compound of Formula I was given in the drinking water at final concentration of 0.5 or 1 mg/kg. Drinking bottles were changed once per week, volume consumption was measured along the treatment period. Food consumption and body weight were assessed. In wild-type animals the pilot study of drug treatment was performed for one month to establish the innocuousness of the treatment with the compound of Formula I. This was based on the physiological, social and behavioural assessments. Thy-Tau22 males were treated for 4 months starting at 3 month old. All protocols were approved by the local ethics committee (n^∘342012, CEEA).
After behavioral assessment, blood was collected in 1.5 mL polypropylene tubes (Eppendorf, France), mice were sacrificed by cervical dislocation to avoid any modifications instrumental to anesthesia (Lefreche et al. 2012). Hippocampi and cortices were dissected and snap frozen in 1.5 mL tubes (Eppendorf). Tissue was homogenized in Tris-HCl buffer (10 mM pH 7.4) containing 320 mM sucrose, protease inhibitors (Complete mini EDTA-free, Roche) sonicated and spun at 12,000×g for 10 min at 4° C. The supernatant was recovered, protein concentration was achieved using the BCA Protein quantification assay kit (Pierce) according to the manufacturer instruction. The supernatant was further processed for biochemical analyses or kept at −80° C. For 1D or 2D gels, the same lysis buffer was used. Thus, equal amount protein in Tris buffer were added with a solution containing 7M urea, 2M thiourée with 2% SDS and sonicated at 60 Hz 30 pulses.
For the western-blot analysis of Tau proteins, SDS-PAGE was performed according to the manufacturer's instructions using Bis-Tris 4-12% gradient acrylamide gel (NuPage® Bis-Tris PreCast 12 wells, Life Technologies). The apparent molecular weights were calibrated using the molecular weight markers (Novex and Magic Marks, Life Technologies). Electrophoresis was performed under a continuous tension of 100V/per gel for 1 h. Proteins were reversibly stained with Ponceau Red to check the quality of the efficacy of protein transfer. For western-blotting, the membranes were blocked in 25 mM Tris-HCl pH 8.0, 150 mM NaCl, 0.1% Tween-20 (v/v) (TBS-T) and 5% (w/v) of skimmed milk (TBS-M) for 30 min and they were incubated overnight at 4° C. the primary antibody. The nitrocellulose membrane is rinsed three times by gentle shaking in TBS-T during 10 min each. […]
Brain proteins (of hippocampus) from untreated and Compound I⋅HCl treated thy-tau22 animals were resolved by 1D SDS-PAGE and Tau proteins were labeled with Pan-Tau antibodies (N-ter, C-ter). Catabolites detected with these antibodies are indicated as f-Nter and f-Cter. […]

In another test the test system is Thy-Tau22 mice. Description: Immunohistochemical measurement of tau pathology (NFT burden) in hippocampal CA1. It counts as in vivo, mouse. The following applies: Thy-Tau22, 0.5 mg/kg vs untreated, FIG. 5. An excerpt:
Wild-type C57BL/6J animals of 3 months were purchased at Charles Rivers Laboratories (France) and were allow to acclimate in the animal facility for at least one week before any treatment. Thy-Tau22 transgenic colonies (C57BL/6J genetic background) were obtained by crossing heterozygous Thy-Tau22 males with C57BL/6 WT females. […] In this model, a progressive development of NFT is observed in the hippocampus and amygdala, which parallels behavioral impairments (Schindowski et al., 2006). Furthermorever, in the hippocampus, hyper- and abnormally phosphorylated Tau species accumulate within the somato-dendritic area (Schindowski et al., 2006). For animal treatment, animals were randomly distributed and the compound of Formula I was given in the drinking water at final concentration of 0.5 or 1 mg/kg. Drinking bottles were changed once per week, volume consumption was measured along the treatment period. Food consumption and body weight were assessed. […] Quantification of labeled neurons was achieved using the NIH-Image J software and expressed in arbitrary units (A.U). The burden of NFT in the hippocampal CA1 was investigated by immunohistochemistry and quantification. […]

The mark [2] stands for this setting: ratio phospho-epitope/total hTau.

On to `CC(C)CN(CCCN1CCN(CCCNc2c3c(nc4ccccc24)CCCC3)CC1)CC(C)C.Cl` [Compound I⋅HCl, N-[3-(4-{3-[Bis(2-methylpropyl)amino]propyl}piperazin-1-yl)propyl]-1,2,3,4-tetrahydroacridin-9-amine hydrochloride], for which, in test [1], the “Tau C-terminal catabolites products at 43 kDa” value is listed as “significantly increased”; the “Tau N-terminal catabolites” value is on record as “significantly decreased”; the “Tau phosphorylation at other phospho-sites (pSer199, pSer262, pSer422, Tau-1)” value was “not significantly modified”. In addition, in test [1] (setting [2]), the “Tau phosphorylation at phospho-site 396” value is on record as “significant reduction” and the “Tau phosphorylation at phospho-site 404” value is “significant reduction”. In the test on Thy-Tau22 mice, the AT8 immunostaining entry is given as “no significant differences” and the “average surface of staining after AT100 staining” value was “significantly reduced”.
